According to patent US20200131196A1 (Mount Tam Therapeutics, Inc., priority 2017, published 2020):

Columns and labels:
SNU-C2B = assay: OncoPanel cell proliferation assay, SNU-C2B; type: cell-based, human
Method: (§1) Cells were grown in RPMI 1640, 10% FBS, 2 mM L-alanyl-L-glutamine, 1 mM Na pyruvate, or a special medium. Cells were seeded into 384-well plates and incubated in a humidified atmosphere of 5% CO2 at 37° C. Compounds were added the day following cell seeding. At the same time, a time zero untreated cell plate was generated. After a 3-day incubation period, cells were fixed and stained to allow fluorescence imaging of nuclei. Compounds (1 mM stock solutions) were serially diluted in half-log steps from the highest test concentration ([…]), and assayed over 10 concentrations with a maximum assay concentration of 0.1% DMSO. Automated fluorescence microscopy was carried out using a Molecular Devices ImageXpress Micro XL high-content imager, and images were collected with a 4× objective. 16-bit TIFF images were acquired and analyzed with MetaXpress 5.1.0.41 software.
(§2) Cell proliferation was measured by the fluorescence intensity of an incorporated nuclear dye. The output is referred to as the relative cell count, where the measured nuclear intensity is transformed to percent of control (POC) using the following formula: […]
(§3) Cellular response parameters were calculated using nonlinear regression to a sigmoidal single-site dose response model:
(§4) EC50 is the test compound concentration at the curve inflection point or half the effective response (parameter C of the fitted curve solution). GI50 is the concentration needed to reduce the observed growth by half (midway between the curve maximum and the time zero value). “Cell Count Activity Area” is an estimate of the integrated area above the curve (Barretina, et al. The Cancer Cell Line Encyclopedia enables predictive modelling of anticancer drug sensitivity. Nature 483: 603-607). […] In rare instances, values <0 or >10 may be observed. […] Curve-fitting, calculations, and report generation was performed using a custom data reduction engine and MathIQ based software (AIM).

SNU-5 = assay: OncoPanel cell proliferation assay, SNU-5; type: cell-based, human; details: Homo sapiens
Method: as §1, with “Cells” for “Cells were grown in RPMI 1640, 10% FBS, 2 mM L-alanyl-L-glutamine, 1 mM Na pyruvate, or a special medium. Cells”
as §2, §3
GI50 is the concentration needed to reduce the observed growth by half (midway between the curve maximum and the time zero value). […] In rare instances, values <0 or >10 may be observed. […] Curve-fitting, calculations, and report generation was performed using a custom data reduction engine and MathIQ based software (AIM).

U-87 MG = assay: OncoPanel cell proliferation assay, U-87 MG; type: cell-based, human
Method: as §1, §2, §3, §4

T24 = assay: OncoPanel cell proliferation assay, T24; type: cell-based, human
Method: as §1, §2, §3, §4

ST486 = assay: OncoPanel cell proliferation assay, ST486; type: cell-based, human
Method: as §1, §2, §3, §4

Hs 729 = assay: OncoPanel cell proliferation assay, Hs 729; type: cell-based, human
Method: as §1, §2, §3, §4

MES-SA = assay: OncoPanel cell proliferation assay, MES-SA; type: cell-based, human
Method: as §1, §2, §3, §4

A431 = assay: OncoPanel cell proliferation assay, A431; type: cell-based, human
Method: as §1, §2, §3, §4

OVCAR3 = assay: OncoPanel cell proliferation assay, OVCAR3
Method: Cells were seeded into 384-well plates and incubated in a humidified atmosphere of 5% CO2 at 37° C. Compounds were added the day following cell seeding. At the same time, a time zero untreated cell plate was generated. After a 3-day incubation period, cells were fixed and stained to allow fluorescence imaging of nuclei. Compounds (1 mM stock solutions) were serially diluted in half-log steps from the highest test concentration (1 micromol), and assayed over 10 concentrations with a maximum assay concentration of 0.1% DMSO. Automated fluorescence microscopy was carried out using a Molecular Devices ImageXpress Micro XL high-content imager, and images were collected with a 4× objective. 16-bit TIFF images were acquired and analyzed with MetaXpress 5.1.0.41 software.

SCaBER = assay: OncoPanel cell proliferation assay, SCaBER; type: cell-based, human
Method: as §1, §2, §3, §4

A101D = assay: OncoPanel cell proliferation assay, A101D; type: cell-based, human
Method: as §1, §2, §3, §4

Hs 852.T = assay: OncoPanel cell proliferation assay, Hs 852.T; type: cell-based, human
Method: as §1, §2, §3, §4

[1] = Homo sapiens, read-out: Cell Count EC50
[2] = Homo sapiens, read-out: Cell Count GI50
[3] = Homo sapiens, read-out: Cell Count IC50

CO[C@H]1C[C@@H]2CC[C@@H](C)[C@@](O)(O2)C(=O)C(=O)N2CCCC[C@H]2C(=O)O[C@H]([C@H](C)C[C@@H]2CC[C@@H](O)[C@H](OC)C2)CC(=O)[C@H](C)/C=C(\C)[C@@H](O)[C@@H](OC)C(=O)[C@H](C)C[C@H](C)/C=C/C=C/C=C/1C [Rapamycin, reference compound]
Cell Count Activity Area (SNU-C2B): 1.99 | EC50 (SNU-C2B; [1]): > 1000 nM | GI50 (SNU-C2B; [2]): > 1000 nM | IC50 (SNU-C2B; [3]): > 1000 nM | EC50 (SNU-5; read-out: Cell Count EC50): 0.885 nM | GI50 (SNU-5; read-out: Cell Count GI50): 24 nM | IC50 (SNU-5; read-out: Cell Count IC50): > 1000 nM | Cell Count Activity Area (U-87 MG): 3.79 | EC50 (U-87 MG; [1]): 0.104 nM | GI50 (U-87 MG; [2]): 0.384 nM | IC50 (U-87 MG; [3]): > 1000 nM | Cell Count Activity Area (T24): 4.39 | EC50 (T24; Homo sapiens, T-24, read-out: Cell Count EC50): 0.0783 nM | GI50 (T24; Homo sapiens, T-24, read-out: Cell Count GI50): 0.474 nM | IC50 (T24; Homo sapiens, T-24, read-out: Cell Count IC50): 2.1 nM | Cell Count Activity Area (ST486): 3.99 | EC50 (ST486; [1]): 0.0354 nM | GI50 (ST486; [2]): 0.0524 nM | IC50 (ST486; [3]): > 1000 nM | Cell Count Activity Area (Hs 729): 0.55 | EC50 (Hs 729; [1]): > 1000 nM | GI50 (Hs 729; [2]): > 1000 nM | IC50 (Hs 729; [3]): > 1000 nM | Cell Count Activity Area (MES-SA): 5.39 | EC50 (MES-SA; [1]): 0.174 nM | GI50 (MES-SA; [2]): 0.294 nM | IC50 (MES-SA; [3]): 0.415 nM | Cell Count Activity Area (A431): 0.28 | EC50 (A431; Homo sapiens, A-431, read-out: Cell Count EC50): > 1000 nM | GI50 (A431; Homo sapiens, A-431, read-out: Cell Count GI50): > 1000 nM | IC50 (A431; Homo sapiens, A-431, read-out: Cell Count IC50): > 1000 nM | EC50 (OVCAR3; Homo sapiens, OVCAR-3, read-out: Cell Count EC50): 1.53 nM | GI50 (OVCAR3; Homo sapiens, OVCAR-3, read-out: Cell Count GI50): 124 nM | IC50 (OVCAR3; Homo sapiens, OVCAR-3, read-out: Cell Count IC50): > 1000 nM | Cell Count Activity Area (OVCAR3; OVCAR3): 2.08 | Cell Count Activity Area (SCaBER): 5.25 | EC50 (SCaBER; [1]): 0.0377 nM | GI50 (SCaBER; [2]): 0.158 nM | IC50 (SCaBER; [3]): 0.321 nM | Cell Count Activity Area (A101D): 2.92 | EC50 (A101D; [1]): 0.184 nM | GI50 (A101D; [2]): 0.721 nM | IC50 (A101D; [3]): > 1000 nM | Cell Count Activity Area (Hs 852.T): 1.43 | EC50 (Hs 852.T; [1]): > 1000 nM | GI50 (Hs 852.T; [2]): > 1000 nM | IC50 (Hs 852.T; [3]): > 1000 nM
